From paper PMC12392461, “Beyond Estrogenicity: A Comparative Assessment of Bisphenol A and Its Alternatives in In Vitro Assays Questions Safety of Replacements” (Environmental Science & Technology, 2025)
Read-outs that look alike come from different tables or passages of the source.

How the values were obtained:
[1] = biological target: T1, Peroxisome proliferator-activated receptor γ (Homo sapiens, UniProt P37231); experiment: cell-based; settings: for EC10, linear / logEC10 / EC10, linear transformed: PPARγ bioassay; for EC10, linear: linear model; for logEC10: log-logistic model; for SR-ScorePPARγ: SR-Score, sigma k=1, x=5; for EC10, PPARγ: effect; for log(1/EC10) PPARγ: input of the ToxPi score, values up to 1.00; for Emax: read-out: Emax%PPARγ
T1 sequence (P37231 238-505 limits assumed): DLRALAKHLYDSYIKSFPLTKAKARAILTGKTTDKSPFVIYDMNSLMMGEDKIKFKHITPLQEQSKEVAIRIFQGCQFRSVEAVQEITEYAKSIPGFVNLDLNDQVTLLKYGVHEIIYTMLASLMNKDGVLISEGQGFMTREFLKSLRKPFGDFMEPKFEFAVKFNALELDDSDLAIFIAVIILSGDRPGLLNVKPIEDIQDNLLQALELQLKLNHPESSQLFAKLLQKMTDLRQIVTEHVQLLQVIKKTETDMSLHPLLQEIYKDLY
Outline: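 ERα-UAS-bla GripTite and PPARγ-UAS-bla β-lactamase reporter cells were seeded and held 24 h at 37 °C, 5% CO₂ before dosing. EC10 values used only concentrations below the IC10 from IncuCyte confluency. Emax% is the log-logistic curve maximum relative to the reference chemical's maximum.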

[2] = tested on: Antioxidant response element; experiment: MitoOxTox: oxidative stress response in AREc32; settings: for EC10: Arec32, read-out: EC10, linear transformed; for EC10, linear / logEC10: Bioassay ARE, dosing range all; for EC10, linear: linear model fit; for logEC10: log-logistic model fit
Source text: (§1) All bioassay media components and the ERα-UAS-bla GripTite and PPARγ-UAS-bla cells were obtained from Thermo Fisher Scientific (Waltham, MA, USA). AREc32 reporter gene cells based on MCF7 were provided by C. Roland Wolf (Cancer Research UK); AhR CALUX cells (H4L7.5c2 derived from H4IIe) were provided by Michael Denison (UC Davis, USA); and SH-SY5Y cells were purchased from Sigma-Aldrich.
(§2) Cell culture conditions and bioassay protocols including response detection are provided in Text S2.1–2.4 and Table S3. − Cell viability was determined from cell confluency using an IncuCyte S3 Live-Cell Analysis System (Sartorius AG, Essen, Germany) before and after exposure, except for SH-SY5Y cells (live–dead staining with Nuclear Green LcS1 and propidium iodide, Abcam, UK). For metabolic activation experiments, cell viability was assessed using the ToxBLAzer DualScreen Kit (Thermo Fisher Scientific) to capture the remaining toxicity in ERα-UAS-bla GripTite after treatment with the aCYP catalyst (details in Text S2.4).
(§3) For ARE, the concentration that triggered an induction ratio of 1.5 (ECIR1.5) was used as the benchmark value, as detailed in Text S2.5. IC10 values also served as a threshold for data analysis in all assays; only concentrations below IC10 were considered when deriving EC10 or ECIR1.5. […]
(§4) S2: Cell culture and bioassays
(§5) S2.1: Cell Culturing Conditions
(§6) All suppliers and sources are given in detail in SI-Excel S3. The bioassay media for the different assays were prepared as follows: Assay medium for ER alpha-UAS-bla GripTite (ERα) and PPAR gamma-UAS-bla 293H (PPARγ) was prepared with 98% Opti-MEM, supplemented with 2% charcoal-stripped FBS, and 100 U/mL penicillin-streptomycin. MitoOxTox and AhR assay medium was comprised of 90% DMEM with GlutaMAX, supplemented with 10% FBS, and 100 U/mL penicillin-streptomycin. Neurotoxicity assay medium consisted of the neurobasal […]
(§7) (1 picture or pasted object on this page, not shown here) […]
(§8) medium, supplemented with 2% B-27 Supplement and 2 mM GlutaMAX Supplement. SH - SY5Y cells were differentiated with 10 µM all-trans retinoic acid prior to the assay.
(§9) S2.2: Cell Seeding and Incubation. For all bioassays, cell suspensions in the respective assay medium were dispensed into each well of 384-well plates using a MultiFlo Dispenser (Biotek, (now Agilent), Winooski, VT, U.S.). After seeding, the plates were incubated at 37° C and 5% CO₂ for […]. The final cell densities and plate types were as follows: Black poly-D-lysine coated 384-well plates (Product No. 354663, Corning Inc., NYC, U.S.) were used for PPARγ:
(§10) 6500 cells/well, ERα: 5000 cells/well. White 384-well plates with a clear bottom (Product No.
(§11) 781098, Greiner, Kremsmünster, Austria) were utilized for the MitoOxTox assay: 2650

SH-SY5Y cells = experiment: cells; settings: for EC10: Homo sapiens, SH-SY5Y; for EC10, linear / logEC10: NOI bioassay, dosing range all; for EC10, linear: linear model; for logEC10: log-logistic model; for Specificity ratio (SRbaseline) SRNOI: against baseline cytotoxicity; for Specificity ratio (SRcytotoxicity) SRNOI: against experimental cytotoxicity; for Relative effect potency REPNOI: relative to BPA;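 on Relative effect potency REPNOI: EC10 of BPA divided by EC10 of the test compound so values above 1 mean more potent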;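 on Specificity ratio (SRbaseline) SRNOI: ratio of predicted baseline cytotoxicity IC10 to the neurite outgrowth inhibition EC10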
Source text: as §1, §2, §3, §4, §5, §6, §7, §8, §9, §10, §11

physchem = settings: for Double negative form (pH = 7.40) / Negative form (pH = 7.40) / Neutral form (pH = 7.40) / αneutral % (fraction of neutral species): from experimental pKa; for αneutral % (fraction of neutral species): pH 7.4; for pKa: pKa (Acid)
Experimental: Physicochemical properties provide input parameters for the baseline toxicity model. Acidity constants (pK a) and octanol–water partition constants of the neutral species (K ow) were measured with a Sirius T instrument from Pion Inc. (Sussex, UK) (Text S1.2 and Table S1). A detailed description of the pK a and K ow measurements can be found in literature. , […]
S1.2: pKa and log Kow measurements […]
titrator (Pion Inc., Sussex, U.K.). A detailed description of the experimental procedure is available in the literature.1 In brief, each sample was prepared by mixing 5 µL of a 10 mM dimethyl sulfoxide (DMSO) stock solution with 25 µL of a phosphate buffer solution (14.4 mM […]
A reference vial containing 5 µL of DMSO
(Roth, A994-100 ML) and 25 µL of phosphate buffer was analyzed alongside each sample.
The pKa values were determined using the automated UV-metric pKa protocol within the Sirius T3 Control software (version 2.0.0.0.). Each sample was subjected to three consecutive […]
from 2 to 12 by stepwise addition of 0.5 M HCl or 0.5 M potassium hydroxide while recording […]
UV absorbance. […]
To ensure reproducibility, measurements were conducted on at least two

[3] = read-out: EC10, linear transformed

Row | Structure (SMILES) | EC10, linear ([1]; dosing range all) | logEC10 ([1]; dosing range all) | EC10, linear [2] | logEC10 [2] | EC10 (SH-SY5Y cells; [3]) [M] | EC10, linear (SH-SY5Y cells) | pKa (Acid) (physchem) | Double negative form (pH = 7.40) (physchem) [%] | Negative form (pH = 7.40) (physchem) [%] | Neutral form (pH = 7.40) (physchem) [%] | αneutral % (fraction of neutral species) (physchem) [%] | pKa (physchem) | EC10 (SH-SY5Y cells; read-out: EC10, NOI) [M] | EC10 (SH-SY5Y cells; read-out: EC10, NOI (M)) [M] | EC10 (SH-SY5Y cells; read-out: EC10, linear) [M] | EC10 (SH-SY5Y cells; read-out: logEC10) [M] | Specificity ratio (SRbaseline) SRNOI (SH-SY5Y cells) | Specificity ratio (SRcytotoxicity) SRNOI (SH-SY5Y cells) | Relative effect potency REPNOI (SH-SY5Y cells) | further results
1 | Oc1ccc(Cc2ccc(O)cc2)cc1 [BPF, Bis(4-hydroxyphenyl)methane] | no effect | no effect | no effect | masked by cytotoxicity | 0.000697 | no effect | 10.27 | 0.000993 | 0.736 | 99 | 99 | 9.53 | – | – | – | – | – | – | – | EC10 [2]: 1470 µM; logEC10 (SH-SY5Y cells): no effect
2 | CCC(C)(c1ccc(O)cc1)c1ccc(O)cc1 [BPB, 4,4'-(Butane-2,2-diyl)diphenol] | no effect | no effect | no effect | no effect | 3.89e-05 | – | 10.33 | 0.000865 | 0.736 | 99 | 99 | 9.53 | 2.8e-05 | 2.8e-05 | 4.03e-05 | 2.82e-05 | 0.59 | 5.98 | 1.81 | –
3 | Cc1ccc(S(=O)(=O)NC(=O)Nc2cccc(OS(=O)(=O)c3ccc(C)cc3)c2)cc1 [Pergafast, N-(p-toluenesulfonyl)-N'-(3-(p-toluenesulfonyloxy)phenyl)urea] | 9.42E-07 | -6.17 | no effect | no effect | 1.52e-05 | – | – | – | 100 | 0.089 | 0.089 | – | 1.25e-05 | 1.25e-05 | 1.25e-05 | 1.51e-05 | 8.80 | 3.95 | 4.06 | EC10, PPARγ (M) ([1]; 10% of maximum effect of rosiglitazone): 6.71 × 10^–7 M; EC10, linear transformed ([1]; dosing range all): 6.71E-07; SR-ScorePPARγ [1]: 1.00; Specificity ratio (SRbaseline) SRPPARγ ([1]; against baseline cytotoxicity): 77.74; Specificity ratio (SRcytotoxicity) SRPPARγ ([1]; against experimental cytotoxicity): 28.39; EC10, PPARγ [1]: 0.671 µM; log(1/EC10) PPARγ [1]: 0.87; Emax [1]: 16%; pKa (physchem; phosphate buffer with […] KCl, Sirius T3 titrator, experimental, this study): 4.35
4 | O=S(=O)(c1ccc(O)cc1)c1ccc(O)cc1 [BPS, 4,4'-Sulfonyldiphenol] | 1.02E-05 | no effect | no effect | no effect | 0.000411 | no effect | 8.16 | 9 | 52 | 39 | 39 | 7.28 | – | – | – | – | – | – | – | logEC10 (SH-SY5Y cells): no effect
5 | CC(c1ccc(O)cc1)c1ccc(O)cc1 [BPE, 4,4′-Ethylidenbisphenol] | no effect | no effect | no effect | masked by cytotoxicity | 0.000235 | – | 9.99 | 0.00576 | 2.24 | 98 | 98 | 9.04 | 0.000114 | 0.000114 | 0.000136 | 0.000115 | – | – | – | EC10 [2]: 3720 µM
6 | CC(C)(c1cc(Cl)c(O)c(Cl)c1)c1cc(Cl)c(O)c(Cl)c1 [TCBPA, 2,2',6,6'-Tetrachlorobisphenol A] | – | – | no effect | no effect | 0.000322 | masked by cytotoxicity | 8.13 | 11 | 60 | 29 | 29 | 7.08 | 0.000322 | 0.000322 | – | 0.000324 | – | – | – | EC10, linear transformed ([1]; dosing range high): 4.16E-08; EC10, linear ([1]; dosing range high): 7.40E-08; logEC10 ([1]; dosing range high): -7.38; EC10, linear transformed ([1]; dosing range low): 1.55E-07; EC10, linear ([1]; dosing range low): 1.92E-07; logEC10 ([1]; dosing range low): -6.81; SR-ScorePPARγ [1]: 1.00; EC10, PPARγ [1]: 0.155 µM; log(1/EC10) PPARγ [1]: 0.96; Emax [1]: 32%
7 | Oc1ccc(C(c2ccc(O)cc2)(C(F)(F)F)C(F)(F)F)cc1 [BPAF, 4,4'-(1,1,1,3,3,3-Hexafluoropropane-2,2-diyl)diphenol] | no effect | no effect | no effect | no effect | 2.61e-05 | – | 8.73 | 0.0417 | 4.47 | 95 | – | 9.43 | 1.62e-05 | 1.62e-05 | 1.93e-05 | 1.62e-05 | – | – | – | –
8 | CC(C)(c1ccc(OCC2CO2)cc1)c1ccc(OCC2CO2)cc1 (stereo not shown) [BADGE, Bisphenol A diglycidyl ether] | no effect | no effect | no effect | no effect | 4.5e-05 | – | – | 0 | 0 | 100 | 100 | – | 3.81e-05 | 3.81e-05 | 3.69e-05 | 3.8e-05 | 0.48 | 1.50 | 1.33 | oxidative stress response (ARE activation) [2]: lacked any oxidative stress response
